Data reported in patent publication US10485803B2, “Pyrimidine compounds as JAK kinase inhibitors” (THERAVANCE BIOPHARMA R&D IP, LLC, priority 2016, dated 2019).
Entries after “also recorded” stand apart in the source; their conditions may differ. Like-named read-outs stand apart in the source and are kept apart here.

Columns and labels:
Tyk2 = Tyk2 (Homo sapiens (Human), UniProt P29597); test: LanthaScreen JAK biochemical assay, Tyk2
Protocol: (§1) A panel of four LanthaScreen JAK biochemical assays (JAK1, 2, 3 and Tyk2) were carried in a common kinase reaction buffer (50 mM HEPES, pH 7.5, 0.01% Brij-35, 10 mM MgCl2, and 1 mM EGTA). Recombinant GST-tagged JAK enzymes and a GFP-tagged STAT1 peptide substrate were obtained from Life Technologies.
(§2) Serially diluted compounds were pre-incubated with each of the four JAK enzymes and the substrate in white 384-well microplates (Corning) at ambient temperature for 1 h. ATP was subsequently added to initiate the kinase reactions in 10 μl total volume, with 1% DMSO. […] The plates were allowed to incubate at ambient temperature for 1 h before being read on the EnVision reader (Perkin Elmer).
(§3) For dose-response analysis, percent inhibition data were plotted vs. compound concentrations, and IC50 values were determined from a 4-parameter robust fit model with the Prism software (GraphPad Software). Results were expressed as pIC50 (negative logarithm of IC50) and subsequently converted to pKi (negative logarithm of dissociation constant, Ki) using the Cheng-Prusoff equation.

JAK3 = JAK3 (Homo sapiens (Human), UniProt P52333); test: LanthaScreen JAK biochemical assay, JAK3
Chain of JAK3 (P52333 whole entry): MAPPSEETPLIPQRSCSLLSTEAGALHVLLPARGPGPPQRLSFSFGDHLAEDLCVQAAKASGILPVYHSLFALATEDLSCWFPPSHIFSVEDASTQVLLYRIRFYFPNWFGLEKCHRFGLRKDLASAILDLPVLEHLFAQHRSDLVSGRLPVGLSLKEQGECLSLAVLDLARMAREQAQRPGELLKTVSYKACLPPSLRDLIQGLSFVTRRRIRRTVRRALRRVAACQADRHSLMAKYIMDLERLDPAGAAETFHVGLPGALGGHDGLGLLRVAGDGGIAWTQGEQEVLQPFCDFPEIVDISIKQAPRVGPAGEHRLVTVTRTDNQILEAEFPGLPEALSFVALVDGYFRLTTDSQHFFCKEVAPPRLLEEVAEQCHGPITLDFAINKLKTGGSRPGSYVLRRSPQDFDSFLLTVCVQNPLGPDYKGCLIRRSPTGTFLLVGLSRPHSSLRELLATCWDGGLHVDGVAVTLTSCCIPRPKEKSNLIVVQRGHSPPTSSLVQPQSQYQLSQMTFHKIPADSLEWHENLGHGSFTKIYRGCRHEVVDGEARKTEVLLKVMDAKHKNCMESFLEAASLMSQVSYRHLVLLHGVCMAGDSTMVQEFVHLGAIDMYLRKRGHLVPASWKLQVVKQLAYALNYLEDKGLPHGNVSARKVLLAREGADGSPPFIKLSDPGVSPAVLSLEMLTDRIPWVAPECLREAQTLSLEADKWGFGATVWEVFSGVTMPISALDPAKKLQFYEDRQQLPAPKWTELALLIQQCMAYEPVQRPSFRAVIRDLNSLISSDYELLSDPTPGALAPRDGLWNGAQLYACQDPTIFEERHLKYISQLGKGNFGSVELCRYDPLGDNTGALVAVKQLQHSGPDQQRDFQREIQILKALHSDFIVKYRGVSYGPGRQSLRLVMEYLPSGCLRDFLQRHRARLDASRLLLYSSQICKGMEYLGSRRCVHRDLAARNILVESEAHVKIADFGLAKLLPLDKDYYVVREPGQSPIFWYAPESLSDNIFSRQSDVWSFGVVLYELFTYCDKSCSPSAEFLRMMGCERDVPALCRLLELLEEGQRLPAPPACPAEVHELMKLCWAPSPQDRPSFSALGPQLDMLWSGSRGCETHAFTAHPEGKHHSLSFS
Protocol: as §1, §2, §3

JAK2 = JAK2 (Homo sapiens (Human), UniProt O60674); test: LanthaScreen JAK biochemical assay, JAK2
Chain of JAK2 (O60674 whole entry): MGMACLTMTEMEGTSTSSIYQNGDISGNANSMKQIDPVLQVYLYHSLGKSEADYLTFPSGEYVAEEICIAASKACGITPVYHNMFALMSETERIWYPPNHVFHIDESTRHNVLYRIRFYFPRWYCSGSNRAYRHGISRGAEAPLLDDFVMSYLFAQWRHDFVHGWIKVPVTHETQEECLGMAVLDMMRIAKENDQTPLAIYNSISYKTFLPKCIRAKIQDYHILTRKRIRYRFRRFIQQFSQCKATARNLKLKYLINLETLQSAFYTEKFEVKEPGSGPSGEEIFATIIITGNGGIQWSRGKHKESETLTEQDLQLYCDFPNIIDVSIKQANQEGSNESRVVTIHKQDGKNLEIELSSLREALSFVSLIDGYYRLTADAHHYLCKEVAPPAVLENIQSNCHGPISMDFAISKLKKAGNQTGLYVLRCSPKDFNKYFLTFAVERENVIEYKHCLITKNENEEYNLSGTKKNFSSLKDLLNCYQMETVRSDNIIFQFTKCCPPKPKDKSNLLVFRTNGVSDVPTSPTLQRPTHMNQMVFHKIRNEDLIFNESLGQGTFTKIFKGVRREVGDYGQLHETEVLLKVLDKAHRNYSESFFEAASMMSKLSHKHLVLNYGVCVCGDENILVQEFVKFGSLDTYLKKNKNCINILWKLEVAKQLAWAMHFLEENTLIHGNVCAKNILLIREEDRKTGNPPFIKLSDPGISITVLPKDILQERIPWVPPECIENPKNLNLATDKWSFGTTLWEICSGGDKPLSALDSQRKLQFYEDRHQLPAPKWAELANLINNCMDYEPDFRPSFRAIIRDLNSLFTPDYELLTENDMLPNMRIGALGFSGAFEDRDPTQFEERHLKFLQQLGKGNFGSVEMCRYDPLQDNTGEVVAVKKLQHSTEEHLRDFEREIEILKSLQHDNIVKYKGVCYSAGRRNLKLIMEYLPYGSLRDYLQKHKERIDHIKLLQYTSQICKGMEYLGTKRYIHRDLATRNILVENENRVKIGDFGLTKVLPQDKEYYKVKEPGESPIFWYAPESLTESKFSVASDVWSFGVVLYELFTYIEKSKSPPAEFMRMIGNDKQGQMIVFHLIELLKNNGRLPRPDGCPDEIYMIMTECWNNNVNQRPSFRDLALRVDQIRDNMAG
Protocol: as §1, §2, §3

JAK1 = JAK1 (Homo sapiens (Human), UniProt P23458); test: LanthaScreen JAK biochemical assay, JAK1
Chain of JAK1 (P23458 whole entry): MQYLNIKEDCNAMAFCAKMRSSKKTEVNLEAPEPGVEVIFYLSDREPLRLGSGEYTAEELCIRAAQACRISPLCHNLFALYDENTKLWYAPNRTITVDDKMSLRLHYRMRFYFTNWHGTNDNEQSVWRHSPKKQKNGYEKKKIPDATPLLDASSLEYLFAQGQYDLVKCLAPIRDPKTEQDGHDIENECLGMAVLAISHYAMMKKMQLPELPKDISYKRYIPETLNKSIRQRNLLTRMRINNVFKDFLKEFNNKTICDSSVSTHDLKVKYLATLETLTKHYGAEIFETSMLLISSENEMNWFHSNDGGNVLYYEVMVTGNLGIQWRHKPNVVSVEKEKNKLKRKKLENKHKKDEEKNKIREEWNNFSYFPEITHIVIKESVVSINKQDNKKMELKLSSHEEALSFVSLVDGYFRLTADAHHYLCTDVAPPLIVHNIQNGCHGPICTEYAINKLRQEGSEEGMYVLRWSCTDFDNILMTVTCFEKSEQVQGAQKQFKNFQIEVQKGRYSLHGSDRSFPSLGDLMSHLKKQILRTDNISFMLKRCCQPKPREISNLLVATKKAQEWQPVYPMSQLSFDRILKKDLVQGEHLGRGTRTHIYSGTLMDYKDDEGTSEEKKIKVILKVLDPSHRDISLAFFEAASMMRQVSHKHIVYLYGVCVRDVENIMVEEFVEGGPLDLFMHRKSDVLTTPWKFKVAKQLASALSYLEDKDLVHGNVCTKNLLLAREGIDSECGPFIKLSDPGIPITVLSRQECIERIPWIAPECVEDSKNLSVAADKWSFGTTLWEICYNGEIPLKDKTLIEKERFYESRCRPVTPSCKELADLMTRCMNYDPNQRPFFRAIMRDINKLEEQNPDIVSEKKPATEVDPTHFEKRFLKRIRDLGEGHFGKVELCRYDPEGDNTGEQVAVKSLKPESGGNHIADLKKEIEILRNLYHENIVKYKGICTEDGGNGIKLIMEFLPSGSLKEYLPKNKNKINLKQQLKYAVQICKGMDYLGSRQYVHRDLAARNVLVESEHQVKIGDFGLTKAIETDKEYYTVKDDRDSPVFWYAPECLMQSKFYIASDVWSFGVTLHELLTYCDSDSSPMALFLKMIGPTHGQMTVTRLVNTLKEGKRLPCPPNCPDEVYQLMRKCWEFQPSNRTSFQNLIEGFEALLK
Protocol: as §1, §2, §3

[1] = tested on: IL-13 induced STAT6 phosphorylation in HT-29 human colorectal adenocarcinoma cells; test: Cellular JAK potency assay: inhibition of IL-13; assay type: cell-based; details: HT-29 cells
Protocol: The potency of test compounds for inhibition of the JAK-dependent cytokine interleuken-13 (IL-13) was assessed by measuring IL-13 (IL-13, R&D Systems) induced STAT6 phosphorylation in HT-29 human colorectal adenocarcinoma cells (ATCC).
The anti-STAT6 antibody (Cell Signaling Technologies) was conjugated to AlphaScreen acceptor beads (Perkin Elmer), while the anti-pSTAT6 (pTyr641) antibody (Cell Signaling Technologies) was biotinylated using EZ-Link Sulfo-NHS-Biotin (Thermo Scientific).
HT-29 cells were grown at 37° C. in a 5% CO2 humidified incubator in McCoy's 5a Modified medium (ATCC) supplemented with 10% FBS (Hyclone), 100 U/mL penicillin, 100 μg/mL streptomycin (Life Technologies), and 2 mM GlutaMAX (Life Technologies). On day 1 of the assay, cells were seeded at a 7,500 cells/well density in white poly-D-lysine-coated 384-well plates (Corning) with 25 μL medium, and were allowed to adhere overnight in the incubator. On day 2 of the assay, the medium was removed and replaced with 12 μL of assay buffer (Hank's Balanced Salt Solution/HBSS, 25 mM HEPES, and 1 mg/ml bovine serum albumin/BSA) containing dose-responses of test compounds. Compounds were serially diluted in DMSO and then diluted another 1000-fold in media to bring the final DMSO concentration to 0.1%. Cells were incubated with test compounds at 37° C. for 1 h, and followed by the addition of 12 μl of pre-warmed IL-13 (12 ng/ml in assay buffer) for stimulation. After incubating at 37° C. for 30 min, the assay buffer (containing compound and IL-13) was removed, and 10 μl of cell lysis buffer (25 mM HEPES, 0.1% SDS, 1% NP-40, 5 mM MgCl2, 1.3 mM EDTA, 1 mM EGTA, and supplement with Complete Ultra mini protease inhibitors and PhosSTOP from Roche Diagnostics). The plates were shaken at ambient temperature for 30 min before the addition of detection reagents. A mixture of biotin-anti-pSTAT6 and anti-STAT6 conjugated acceptor beads was added first and incubated at ambient temperature for 2 h, followed by the addition of streptavidin conjugated donor beads (Perkin Elmer). After a minimum of 2 h incubation, the assay plates were read on the EnVision plate reader.
Results were expressed as the negative logarithm of the IC50 value, pIC50.

[2] = tested on: oxazolone-induced colitis; test: Mouse model of oxazolone-induced colitis; assay type: in vivo, BALB/C mice; details: mice, PO, 1, 3, and/or 10 mg/kg BID
Protocol: Oxazolone-induced colitis is an experimental model that has a histological resemblance to human ulcerative colitis (Heller et al. […], 2002, 17, 629-638). Adult BALB/C mice from Harlan were used in the assay. On day 1, animals were lightly anesthetized with isoflurane and the hairs between the shoulder were carefully removed before oxazolone (4%, 150 μL, 4:1 acetone: olive oil formulation) or vehicle solution was slowly applied for skin sensitization. Seven days after skin sensitization, the mice were fasted overnight, anesthetized with isoflurane inhalation, and a 1 mL syringe equipped with a 3.5-F catheter, filled with oxazolone solution, was inserted carefully about 4 cm into the colon of the mouse. Following insertion, 50 μL of the oxazolone solution (1%, 1:1 ethanol:water formulation) was injected very slowly (over 30 sec using an injection pump) into the colon. The catheter was removed and the mice were held vertically (head down) for 2 min to ensure that the entire oxazolone solution remained inside the colon. Drug treatment (PO, BID or TID) or vehicle was initiated a day prior to the oxazolone intrarectal (IR) challenge. Two-day post oxazolone intrarectal challenge, the Disease Activity Index (DAI) was assessed by treatment-blinded experimenters for each mouse according to the criteria score: stool consistency score (0, normal; 2, loose; 4, diarrhea), gross bleeding score (0, absence; 2, blood tinged; 4, presence), and weight loss score (0, none; 1, 1%-5%; 2, 5%-10%; 3, 10%-20%; 4, more than 20%); DAI=average of (stool consistency score+gross bleeding score+weight loss score).

[3] = Determination of absorption in cannulated rats; assay type: in vivo, Sprague Dawley rats; details: rat, oral vs IV dose
Protocol: Oral bioavailability (F %), fraction absorbed (Fa%) and fraction escaping hepatic clearance (Fh%) were determined in Sprague Dawley rats from the following two studies:
(1) Pharmacokinetics in rats following an IV dose of test compound: Following IV dosing, plasma samples were typically collected from 0-6 hr. Drug levels were determined using an LC-MS-MS method. The resulting drug levels were used to compute the IV pharmacokinetic parameters: AUC IV and Dose IV.
(2) Rats that have been cannulated in their portal vein (PV) and also in their jugular vein (JV) were dosed orally with test compound. Following oral dosing, plasma samples were typically collected from 0-6 hr from both the portal vein and the jugular vein. Drug levels were determined using an LC-MS-MS method. The resulting drug levels were used to compute the following pharmacokinetic parameters: AUC PO PV, AUC PO JV, and Dose PO.
Using data derived from the above studies, the oral bioavailability F %, and the quantities Fa% and Fh% were calculated from the following formulas: F%=(AUC PO JV/AUC IV)*(Dose IV/Dose PO)*100 Fa%=(AUC PO PV/AUC IV)*(Dose IV/Dose PO)*100 Fh%=AUC PO JV/AUC PO PV • where: • AUC PO JV=Area under the curve following oral dose and plasma collected from the jugular vein • AUC PO PV=Area under the curve following oral dose and plasma collected from the portal vein • AUC IV=Area under the curve following an intravenous dose • Dose IV=Intravenous Dose in mg/kg • Dose PO=Oral Dose in mg/kg

[4] = tested on: mouse splenic NK, B and T cells; details: in vivo; for treatment effect on B and T cell populations: po
Protocol: Depletion of mouse splenic cells is an experimental model of immunosuppression (Kudlacz et al., Am. J. of Transplantation, 2004, 4, 51-57). The compound of Example 2 was assessed in the mouse splenic cell model following the same treatment paradigm as that used in the oxazolone-induced colitis model (Assay 8).
The compound (1, 10 and 100 mg/kg, BID) and tofacitinib (30 and 60 mg/kg, BID) as a positive control were dosed orally for three days to naïve mice. Spleens were harvested 1 h post last dose and crushed immediately for cell subtype staining. Prior to fixation, fluorophore-labelled antibodies for CD19 (FITC; B cells), CD3e (PE; pan T cells) and DX5 (APC; NK cells) were incubated with splenocyte samples from each animal to allow for simultaneous, multiple subtype % analysis on the flow cytometer. The number of total spleen cells for each animal was measured by Scepter™ 2.0 Handheld Automated Cell Counter.
The absolute number of lymphocyte subtype population (e.g., splenic B, T and NK cells) was calculated from the percentage of each subtype times total spleen cells for each animal. A one way ANOVA, with Dunnett's post hoc test, was used to compare the splenic lymphocytes number of the vehicle and test compound groups. The a level was set at p<0.05. Data were presented as the mean±SEM for each group.

[5] = tested on: TPA-induced increase in ear thickness; test: Topical TPA-induced irritant contact dermatitis model in mice; assay type: in vivo, Balb/c mice; details: 6 hours after TPA
Protocol: The objective of this assay is to assess the anti-inflammatory effect in a model of acute dermatitis of test compounds being studied for cutaneous inflammatory conditions such as atopic dermatitis (Dong et al., J Pharmacol Exp Ther, 2013, 344, 436-446).
Topical dermal application of phorbol ester 12-O-tetradecanoylphorbol-13-acetate (TPA) in mice causes an inflammatory response that is characterized by edema and neutrophil influx at the early phase (2-24 h) and by epidermal cell proliferation at the later phase (24-48 h) (Griffiths et al., Agents and Actions, 1988, 25, 344-351). Female Balb/c mice were topically administered with either vehicle (1:7 DMSO:acetone) or 20 μL of a solution of TPA (2.5 μg) in vehicle on each ear. At 30 min before and 15 min after TPA administration, either vehicle or the compound of Example 2 at doses of 30, 100, 300, 1000, and 3000 μg in vehicle was applied topically to each ear. The degree of inflammation was assessed as the change in ear thickness at 6 hours after TPA application.

[6] = in vivo
Description: The objective of this assay was to determine the epidermal, dermal and plasma pharmacokinetics of a test compound following a 24 hr exposure to intact mouse or mini-pig skin.
Twenty-four hours prior to dosing the hair was shaved from the back of 25 g male Balb/c mice exposing an area at of least 6 cm^2 (about 10% of body surface) and, in a separate experiment, of 10 kg Gottingen mini-pigs exposing an area of at least 450 cm^2 (about 10% of body surface). […] The skin was covered with an adhesive cover to prevent loss of compound to the cage or bedding.
Following 24 h exposure, the backs were gently washed with soap and water to remove non-absorbed drug and patted dry. Immediately following this washing, blood was drawn by cardiac puncture from the mice and via venipuncture from the mini-pigs. The outer skin (stratum corneum) was then removed by adhesive tape stripping. Upon exposure of the epidermis a 0.5 cm punch biopsy was taken. The epidermis and dermis were quickly separated, weighed and snap frozen.

[7] = Colon pharmacokinetics in rats; assay type: in vivo, Sprague Dawley rats; details: rat, upon oral administration, dose not stated

Chain of Tyk2 (P29597 whole entry): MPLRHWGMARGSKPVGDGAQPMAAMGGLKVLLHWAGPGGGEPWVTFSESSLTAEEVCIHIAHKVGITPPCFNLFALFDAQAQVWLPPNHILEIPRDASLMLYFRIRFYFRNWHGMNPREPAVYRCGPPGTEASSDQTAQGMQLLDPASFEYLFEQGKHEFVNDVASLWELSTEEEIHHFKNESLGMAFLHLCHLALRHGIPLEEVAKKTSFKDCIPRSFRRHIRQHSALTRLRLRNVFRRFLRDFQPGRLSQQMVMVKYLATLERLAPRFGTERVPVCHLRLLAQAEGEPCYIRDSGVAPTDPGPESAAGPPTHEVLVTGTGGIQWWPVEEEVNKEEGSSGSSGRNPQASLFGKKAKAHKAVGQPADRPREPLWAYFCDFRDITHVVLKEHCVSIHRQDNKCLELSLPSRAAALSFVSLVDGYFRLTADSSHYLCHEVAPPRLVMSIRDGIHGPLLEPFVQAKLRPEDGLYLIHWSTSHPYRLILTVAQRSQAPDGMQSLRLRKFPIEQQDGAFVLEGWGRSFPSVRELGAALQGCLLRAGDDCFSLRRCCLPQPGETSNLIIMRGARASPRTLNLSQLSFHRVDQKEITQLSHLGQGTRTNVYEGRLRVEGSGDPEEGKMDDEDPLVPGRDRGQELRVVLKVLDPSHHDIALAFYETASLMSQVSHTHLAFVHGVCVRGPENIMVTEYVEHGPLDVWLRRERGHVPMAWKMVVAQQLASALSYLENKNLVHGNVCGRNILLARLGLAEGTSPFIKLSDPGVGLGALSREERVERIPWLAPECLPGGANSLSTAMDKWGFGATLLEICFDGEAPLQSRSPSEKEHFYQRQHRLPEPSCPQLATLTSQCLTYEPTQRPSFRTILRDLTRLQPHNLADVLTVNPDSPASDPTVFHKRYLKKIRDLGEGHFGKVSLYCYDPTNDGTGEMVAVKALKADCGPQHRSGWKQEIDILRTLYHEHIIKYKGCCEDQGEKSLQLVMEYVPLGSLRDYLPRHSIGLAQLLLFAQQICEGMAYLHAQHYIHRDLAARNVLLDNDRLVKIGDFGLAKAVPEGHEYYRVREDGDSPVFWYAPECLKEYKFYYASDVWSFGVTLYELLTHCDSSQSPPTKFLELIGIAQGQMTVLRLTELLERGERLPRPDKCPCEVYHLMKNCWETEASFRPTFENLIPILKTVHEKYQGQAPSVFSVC

Compound	Tyk 2 (pKi) (Tyk2)	JAK 3 (pKi) (JAK3)	JAK 2 (pKi) (JAK2)	JAK 1 (pKi) (JAK1)	HT-29 (pIC50) [1]	decrease in DAI score as compared with vehicle treated animals [2]	oral bioavailability (F %) ([3]; jugular vein)	absorption at the portal vein (Fa%) [3]	effect of immunosuppression [4]	treatment effect on B and T cell populations [4]	inhibition of TPA-induced increase in ear thickness ([5]; topical 30-3000 μg per ear)	maximum statistically significant inhibition of TPA-induced increase in ear thickness ([5]; topical, 1000 μg dose) [%]	duration of sustained dermal levels ([6]; Gottingen, minipig)	duration of sustained dermal levels ([6]; male, Balb/c, mouse)	ratio of exposure in the colon to exposure in plasma [7]
COc1cc(Nc2cc(CO)[nH]n2)nc(N(C)[C@@H]2C[C@H]3CC[C@@H](C2)N3S(=O)(=O)N2CC(C#N)C2)n1 [Example 1, 1-(((1R,3s,5S)-3-((4-((5-(Hydroxymethyl)-1H-pyrazol-3-yl)amino)-6-methoxypyrimidin-2-yl)(methyl)amino)-8-azabicyclo[3.2.1]octan-8-yl)sulfonyl)azetidine-3-carbonitrile]	B (B represents a pKi value between 9 and 10 (Ki between 1 nM and 0.1 nM))	C (C represents a pKi value between 8 and 9 (Ki between 10 nM and 1 nM))	A (A represents a pKi value ≥10 (Ki≤0.1 nM))	A (A represents a pKi value ≥10 (Ki≤0.1 nM))	B (B represents a pIC50 value between 6.7 and 7.5 (IC50 between 200 nM and 32 nM))	did not exhibit a statistically significant decrease	less than 5%	less than 25%	–	–	–	–	–	–	–
COc1cc(Nc2cc(CO)[nH]n2)nc(N(C)[C@@H]2C[C@H]3CCC[C@@H](C2)N3S(=O)(=O)N2CC(C#N)C2)n1 [Example 2, 1-(((1R,3s,5S)-3-((4-((5-(Hydroxymethyl)-1H-pyrazol-3-yl)amino)-6-methoxypyrimidin-2-yl)(methyl)amino)-9-azabicyclo[3.3.1]nonan-9-yl)sulfonyl)azetidine-3-carbonitrile]	–	–	–	–	–	demonstrated activity; also recorded: statistically significant decrease	–	less than 25%	minimal effect of immunosuppression	No treatment effect	dose- and concentration-dependent effect; also recorded: dose- and concentration-dependent inhibition	41	at least 7 days	at least 2 days	greater than 250
C[C@@H]1CCN(C(=O)CC#N)C[C@@H]1N(C)c1ncnc2[nH]ccc12 [tofacitinib, reference compound]	–	–	–	–	–	–	–	–	–	No treatment effect	–	–	–	–	–
